We go through four molecules from patent publication US20190255086A1, “Compositions and Methods for Treating an Infection” (CMPD Licensing, LLC, priority 2015, published 2019).

Assay [1] concerns Aspergillus terreus. The experiment in a line: Expected efficacy of anti-fungal agents against various fungi (Table 4).
In assay [2] the test system is Candida species. Described as above.
For assay [3], the system named is Cryptococcus neoformans. The assay is described as above.
Assay [4] relates to Aspergillus fumigatus. The assay is described as above.
Assay [5] concerns Blastomyces dermatitidis. The assay is described as above.
Assay [6] concerns Aspergillus niger. Described as above.
Assay [7] deals with Coccidioides immitis. The following applies: expected efficacy.
Assay [8] deals with Leishmania donovani. The experiment in a line: Expected efficacy of anti-fungal agents against various fungi (Table 4).
Assay [9] has as its system Fusarium species. The description is as above.
In assay [10] the test system is Trichophyton mentagrophytes. Described as above.
Assay [11] relates to Histoplasma duboisii. The following applies: expected efficacy.
In assay [12] the test system is Trichophyton rubrum. The assay can be described thus: Expected efficacy of anti-fungal agents against various fungi (Table 4).
Assay [13] deals with Sporothrix schenckii. The assay is described as above.
In assay [14] the test system is Acinetobacter baumannii. The experiment in a line: Expected efficacy of anti-bacterial agents against various bacteria (Tables 5 and 6). The following applies: Gram: neg.
The test system of assay [15] is Yersinia pestis. The conditions noted are these: expected efficacy; Yersinia pestis; Gram: neg.
For assay [16], the system named is Campylobacter jejuni. The assay can be described thus: Expected efficacy of anti-bacterial agents against various bacteria (Tables 5 and 6). The following applies: Gram: neg.
Assay [17] relates to Enterobacter aerogenes. Described as above. The conditions noted are these: Gram: neg.
Assay [18] deals with Enterobacter sakazakii. Described as above. The conditions noted are these: Gram: neg.
For assay [19], the system named is Enterobacter cloacae. Described as above. The conditions noted are these: Gram: neg.
For assay [20], the system named is Bordetella pertussis. The description is as above. The conditions noted are these: Gram: neg.
In assay [21] the test system is Neisseria meningitidis. Described as above. The conditions noted are these: Gram: neg.
Assay [22] has as its system Rickettsiae. The following applies: expected efficacy; Rickettsiae; Gram: neg.
Assay [23] relates to Salmonella typhi. The experiment in a line: Expected efficacy of anti-bacterial agents against various bacteria (Tables 5 and 6). The following applies: Gram: neg.
Assay [24] relates to Shigella dysenteriae. The assay is described as above. The following applies: Gram: neg.
The test system of assay [25] is Shigella boydii. The assay is described as above. The conditions noted are these: Gram: neg.
In assay [26] the test system is Corynebacterium jeikeium. The assay is described as above. The conditions noted are these: Gram: pos.
Assay [27] has as its system Bartonella bacilliformis. The assay is described as above. The following applies: Gram: neg.
Assay [28] concerns Klebsiella oxytoca. The description is as above. The following applies: Gram: neg.
In assay [29] the test system is Escherichia coli. The assay is described as above. The conditions noted are these: Gram: neg.
Assay [30] concerns Morganella morganii. The description is as above. The following applies: Gram: neg.
Assay [31] has as its system Methicillin resistant staph aureus (MRSA). Described as above. The conditions noted are these: Gram: pos.
Assay [32] relates to Moraxella catarrhalis. The assay is described as above. The conditions noted are these: Gram: neg.
The subject of assay [33] is Staphylococcus aureus (MSSA). Described as above. The following applies: Gram: pos.
For assay [34], the system named is Klebsiella (Calymmatobacterium) granulomatis. The assay is described as above. The following applies: Gram: neg.
The subject of assay [35] is Klebsiella pneumoniae. The assay is described as above. The following applies: Gram: neg.
For assay [36], the system named is Serratia marcescens. Described as above. The following applies: Gram: neg.
Assay [37] relates to Brucella species. The conditions noted are these: expected efficacy; Brucella species; Gram: neg.
The subject of assay [38] is Shigella sonnei. The experiment in a line: Expected efficacy of anti-bacterial agents against various bacteria (Tables 5 and 6). The following applies: Gram: neg.
The subject of assay [39] is gram-positive staphylococci and streptococci. The conditions noted are these: general background statement; cited from earlier work.
Assay [40] has as its system Haemophilus ducreyi. The assay can be described thus: Expected efficacy of anti-bacterial agents against various bacteria (Tables 5 and 6). The following applies: Gram: neg.
The test system of assay [41] is Shigella flexneri. The assay is described as above. The following applies: Gram: neg.
For assay [42], the system named is Vibrio cholerae. The description is as above. The conditions noted are these: Gram: neg.
For assay [43], the system named is Providencia rettgeri. The assay is described as above. The following applies: Gram: neg.
Assay [44] has as its system Proteus vulgaris. The assay is described as above. The conditions noted are these: Gram: neg.
For assay [45], the system named is Citrobacter diversus. Described as above. The conditions noted are these: Gram: neg.
Assay [46] concerns Streptococcus pyogenes. The description is as above. The following applies: Gram: pos.
Assay [47] has as its system Acinetobacter calcoaceticus. Described as above. The following applies: Gram: neg.
Assay [48] relates to Francisella tularensis. The following applies: expected efficacy; Francisella tularensis; Gram: neg.
For assay [49], the system named is Clostridium perfringens. The conditions noted are these: expected efficacy; Clostridium perfringens; Gram: anaer.
Assay [50] relates to Haemophilus influenzae. The assay can be described thus: Expected efficacy of anti-bacterial agents against various bacteria (Tables 5 and 6). The following applies: Gram: neg.
Assay [51] relates to Legionella pneumophila. The conditions noted are these: expected efficacy; Legionella pneumophila; Gram: neg.
The subject of assay [52] is Proteus mirabilis. The experiment in a line: Expected efficacy of anti-bacterial agents against various bacteria (Tables 5 and 6). The conditions noted are these: Gram: neg.
Assay [53] deals with Acinetobacter lwoffii. The description is as above. The following applies: Gram: neg.
Assay [54] deals with Citrobacter freundii. The assay is described as above. The conditions noted are these: Gram: neg.
Assay [55] relates to Corynebacterium urealyticum. The assay is described as above. The conditions noted are these: Gram: pos.
In assay [56] the test system is Pseudomonas aeruginosa. The assay is described as above. The following applies: Gram: neg.
In assay [57] the test system is Pseudomonas fluorescens. The description is as above. The following applies: Gram: neg.
Assay [58] concerns Neisseria gonorrhoeae. The description is as above. The conditions noted are these: Gram: neg.
The subject of assay [59] is Providencia stuartii. Described as above. The conditions noted are these: Gram: neg.

Consider `C[C@@H]1[C@H](O)[C@@H](C)/C=C/C=C/C=C/C=C/C=C/C=C/C=C/[C@H](O[C@@H]2O[C@H](C)[C@@H](O)[C@H](N)[C@@H]2O)C[C@@H]2O[C@](O)(C[C@@H](O)C[C@@H](O)[C@H](O)CC[C@@H](O)C[C@@H](O)CC(=O)O[C@H]1C)C[C@H](O)[C@H]2C(=O)O` [Amphotericin], for which the “Efficacy of various antifungal agents” value in assay [1], in assay [2], in assay [3], in assay [4], in [5] and in [6] was “yes” in each case. Also, the “Efficacy of various antifungal agents” value in [7] and in assay [8] was “yes” each time.
Take `C[C@@H](c1ncncc1F)[C@](O)(Cn1cncn1)c1ccc(F)cc1F` [Voriconazole]: the “Efficacy of various antifungal agents” value in [1], in assay [2], in assay [9], in [4] and in assay [6] was “yes” each time.
On to `CCC(C)n1ncn(-c2ccc(N3CCN(c4ccc(OC[C@H]5CO[C@](Cn6cncn6)(c6ccc(Cl)cc6Cl)O5)cc4)CC3)cc2)c1=O` (mixture of isomers) [Itraconazole], for which the “Efficacy of various antifungal agents” value in [10], in [2], in assay [3], in assay [11], in [4] and in assay [5] was “yes” throughout. The “Efficacy of various antifungal agents” value in assay [12], in assay [7] and in assay [13] was “yes” in each case.
Turning to `C/C(=C\C(=O)OCCCCCCCCC(=O)O)C[C@@H]1OC[C@H](C[C@@H]2O[C@H]2[C@@H](C)[C@H](C)O)[C@@H](O)[C@H]1O` [Bactroban, Mupirocin], the “Efficacy of various antibiotic agents” value in [14], in [15], in assay [16], in assay [17], in assay [18] and in [19] was “no” in each case. Moreover, the “Efficacy of various antibiotic agents” value in assay [20], in assay [21], in assay [22], in assay [23], in assay [24] and in assay [25] was “no” each time. For the same molecule, the “Efficacy of various antibiotic agents” value is “no” in assay [26]; “no” in assay [27]; “no” in [28]; “no” in [29]; “no” in [30]; “yes” in assay [31]. Moreover, the “Efficacy of various antibiotic agents” value in assay [32] is reported as “no”; in assay [33] it was “yes”; in assay [34], “no”; in [35], “no”; in assay [36], “no”; in assay [37] it was “no”. The “Efficacy of various antibiotic agents” value in assay [38], in assay [40], in assay [41], in assay [42], in assay [43] and in assay [44] was “no” throughout. Further, the “Efficacy of various antibiotic agents” value in assay [45] is listed as “no”; in assay [46], “yes”; in assay [47], “no”; in [48], “no”; in assay [49], “no”; in assay [50], “no”. Also, the “Efficacy of various antibiotic agents” value in [51], in assay [52], in assay [53], in assay [54], in assay [55] and in assay [56] was “no” in each case. Further, the “Efficacy of various antibiotic agents” value in [57], in assay [58] and in assay [59] was “no” in each case. Further, the “activity against gram-positive staphylococci and streptococci” value in assay [39] is reported as “excellent activity”.
